“Also recorded” adds a separate entry of the source. Read-outs that look alike come from different tables or passages of the source.

The target in series [1] is T1, Atlantic cod androgen receptor alpha (gmAra) LBD (Gadus morhua, UniProt D5FIC7).
T1 sequence (D5FIC7 409-718): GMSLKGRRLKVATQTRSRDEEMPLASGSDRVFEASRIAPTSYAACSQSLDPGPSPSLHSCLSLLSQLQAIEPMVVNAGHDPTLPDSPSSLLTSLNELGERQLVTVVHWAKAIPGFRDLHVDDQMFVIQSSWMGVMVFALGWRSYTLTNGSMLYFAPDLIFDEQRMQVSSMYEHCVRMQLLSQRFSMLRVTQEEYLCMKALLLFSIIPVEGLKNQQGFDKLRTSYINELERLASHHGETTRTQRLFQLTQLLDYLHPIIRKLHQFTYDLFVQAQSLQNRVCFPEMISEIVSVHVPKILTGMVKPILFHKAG
Briefly: Luciferase reporter gene assay, gmAra agonism (androgenic activity) in transfected COS-7 cells. To be noted: for maximal fold induction: COS-7, monkey, 24 h, read-out: gmAra Emax. How it is done: (§1) Ligand activation of gmEra and gmAra was studied with a luciferase reporter gene assay in COS-7 cells transiently transfected with the pCMX-GAL4(DBD)-gmEra(LBD) or pCMX-GAL4(DBD)-gmAra(LBD) plasmid by using the TransIT-LT1 reagent (TransIT-LT1 Transfection Reagent, Mirus). Cells were seeded into 96-well plates (5000 cells/well) and incubated for 24 h before cotransfection with the plasmid mixture (100 ng/well). The plasmid mixture contained GAL4-UAS luciferase reporter plasmid (tk-(MH100)x4 luc), the pCMX-GAL4(DBD)-gmEra(LBD) or pCMX-GAL4(DBD)-gmAra(LBD) receptor plasmids (2:1 reporter:receptor plasmid mass ratio), and a plasmid constitutively producing the β-galactosidase enzyme used for normalization of transfection efficiency (pCMV- β-Gal). […] The maximum DMSO/methanol concentrations in the exposure wells were 0.5% (v/v) in DMEM medium without phenol red (Sigma-Aldrich). After exposure, cells were lysed, and luciferase and beta-galactosidase activities were measured as luminescence and absorbance (420 nm) after the addition of luciferin and ONPG substrates, respectively, using an Enspire Multimode plate reader (PerkinElmer, Waltham, Massachusetts, USA).
Figure 3 Androgenic activity of bisphenols. COS-7 cells were transiently transfected with gmAra LBD and exposed individually to 12 bisphenol analogs at increasing concentrations. […] The dose–response curves were created using nonlinear regression and the four-parameter logistic fit in Graphpad Prism v.9. For comparison, the dose–response curve of BPA (black line) is indicated together with each individual BP tested (red line). *p < 0.05 versus solvent control by one-way ANOVA and Dunnett’s multiple comparison post hoc test.

Series [2] addresses T2, Atlantic cod estrogen receptor alpha (gmEra) LBD (Gadus morhua, UniProt U5ILH7).
T2 sequence (U5ILH7 170-455): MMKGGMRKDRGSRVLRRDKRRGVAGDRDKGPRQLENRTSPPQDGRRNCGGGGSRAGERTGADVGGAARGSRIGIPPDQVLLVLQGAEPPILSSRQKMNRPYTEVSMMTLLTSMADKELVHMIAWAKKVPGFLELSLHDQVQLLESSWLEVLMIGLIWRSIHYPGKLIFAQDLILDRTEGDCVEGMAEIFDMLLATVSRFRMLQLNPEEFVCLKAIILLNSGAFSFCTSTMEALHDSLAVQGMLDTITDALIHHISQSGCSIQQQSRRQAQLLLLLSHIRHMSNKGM
Briefly: Luciferase reporter gene assay, gmEra agonism (estrogenic activity) in transfected COS-7 cells. To be noted: for EC50: gmEra EC50, four-parameter logistic fit; for gmEra REP50 (relative potency EC50, EC50-bisphenol A/EC50-bisphenol X): relative to BPA. How it is done: as §1
Luciferase reporter gene assays were established with COS-7 cells transiently producing the LBD of gmEra (Figure S1) for evaluating the estrogenic potential of 12 bisphenols.
COS-7 cells transiently transfected with gmEra-LBD were exposed to EE2 (open circles), BPA (black circles), and 11 different BPA analogs (red squares and as indicated) at increasing concentrations. Responses are presented as mean fold activation in luciferase activity in comparison to solvent-exposed cells ± SEM from three independent experiments with three technical replicates (n = 9). The dose–response curves were created using nonlinear regression and the four parameter logistic fit in Graphpad Prism v.9. For comparison, the dose–response curve of BPA (black line) is indicated together with each individual BP tested (red line). *p < 0.05 versus solvent control by one-way ANOVA and Dunnett’s multiple comparison post hoc test.

The test system of series [3] is Er. The arrangement: method as in doi:10.11403/jset.11.133. To be noted: medaka; cited from earlier work.
Another series concerns human Era. Details: method as in PMID 15635150. To be noted: cited from earlier work.
Series [4] deals with T1, Atlantic cod androgen receptor alpha (gmAra) LBD. Briefly: Luciferase reporter gene assay, gmAra antagonism (antiandrogenic activity), coexposure with 5 nM testosterone. As to conditions: for effect on testosterone-mediated gmAra activity, result in words: BPs 0.003–50 μM with 5 nM testosterone; for IC50: gmAra IC50, in the presence of 5 nM testosterone (EC20). The series is classed as cell-based. How it is done: as §1
(§2) The dose–response curves were created using nonlinear regression and the four-parameter logistic fit in Graphpad Prism v.9. *p < 0.05 versus solvent control by ANOVA and Dunnett’s multiple comparison post hoc test.

The test system of series [5] is Er. The arrangement: method as in PMID 12651187. To be noted: carp; cited from earlier work.
The target of series [6] is T2, Atlantic cod estrogen receptor alpha (gmEra) LBD. Briefly: Luciferase reporter gene assay, gmEra antagonism (antiestrogenic activity), coexposure with 3 nM EE2. As to conditions: coexposure with EE2 (3 nM, EC20). The series is classed as cell-based. How it is done:
as §1
To investigate potential antiestrogenic effects, COS-7 cells transiently expressing gmEra LBD were exposed to the 12 bisphenols in binary mixtures with a fixed concentration of EE2 (3 nM, corresponding to EC20) (Figure 2 and Table 1).
as §2

In series [7] the test system is Er-mediated synthesis of Vtg in Atlantic cod PCLS. Briefly: Vitellogenin ELISA in media of exposed precision-cut liver slices (PCLS). The series is classed as cell-based, Atlantic cod (Gadus morhua). To be noted: 1, 10, 100 μM bisphenols or 0.1, 1, 10 nM EE2; 96 h; Vtg in media by ELISA. How it is done: PCLS culturing and exposure assays were performed essentially as described previously,[42],[56] with the modifications described below. Juvenile Atlantic cod were killed by a blow to the head, and the liver was dissected out and placed in a Petri dish containing ice-cold PCLS buffer (122 mM NaCl, 4.8 mM KCl, 1.2 mM MgSO4, 11 mM Na2HPO4, 3.7 mM NaHCO3, […]). The liver was then cut into small tissue blocks (approximately 3 cm long, 2 cm wide, and 1–3 cm high) and kept in ice-cold complete culture medium (L-15 medium supplemented with 10% FBS and 1× antibiotic-antimycotic solution). For slicing, the tissue block was fixed on the specimen plate of a Leica vibrating blade microtome VT1200 (Leica, Wetzlar, Germany) using Loctite Super Glue (Clas Ohlson, Bergen, Norway), and 250 μm thick tissue slices were cut (under ice-cold PCLS buffer) and kept in a Petri dish with ice-cold complete culture medium. Using a sterile razor blade, the tissue slices (2 × 3 cm) were then divided into smaller pieces (approximately 4 × 4 mm) and distributed into a 12-well cell culture plate (Sarstedt, Nümbrecht, Germany), each well containing 6 slices and 2 mL of complete culture medium. The PCLS were preincubated at 10 °C for 2 h before exposure. After preincubation, 1 mL of the medium was removed from each well and replaced by 1 mL of fresh complete culture medium containing 2x the final desired concentration and incubated at 10 °C for 96 h with shaking at 50 rpm. […] At the end of the exposure, slices were collected with tweezers and rinsed briefly in cold PBS. Excess PBS was removed by carefully touching a dry surface of the culture plate with the slice 4 times before measuring the weight in a preweighed cryotube. The slices were then snap-frozen in liquid N2 and stored at −80 °C. The media was also sampled and stored at −80 °C for viability (LDH) assay and vitellogenin ELISA.
Vitellogenin (Vtg) in media collected from exposed PCLS was quantified using the Atlantic Cod Vitellogenin ELISA kit (Biosense Laboratories AS, Bergen, Norway) according to manufacturer’s instructions. Vtg was quantified in 100 μL of undiluted media and normalized to the weight of the liver tissue. Statistical analysis of ELISA data was performed with GraphPad Prism Software version 9 (GraphPad Prism, La Jolla, CA, USA) by using one-way ANOVA followed by Dunnett’s test (for normally distributed data) or Friedman test followed by Dunn’s test (for non-normally distributed data), as described previously for PCLS experiments (Yadetie et al.[42]).
Figure 5 Relative vitellogenin production in Atlantic cod precision-cut liver slices (PCLS) exposed to bisphenols and EE2. PCLS were exposed to 1, 10, and 100 μM bisphenols or 0.1, 1, and 10 nM EE2, for 96 h. EE2 was included as positive control for activation of the gmEra signaling pathway. Levels of induced Vtg in the PCLS media were measured using ELISA (Cod Vitellogenin ELISA kit, Biosense Laboratories AS). The data represents mean ± SEM of fold change (compared to solvent control) of Vtg levels from 4 to 10 fish. n = 8–10 for all bisphenols except for BADGE (n = 4). Asterisks denote significant changes (p < 0.05) compared to solvent control.

Consider `CC(C)(c1ccc(O)cc1)c1ccc(O)cc1` [BPA, Bisphenol A], for which the EC50 in series [1] was 25700 nM; in series [2] (24 h exposure) it was 1900 nM; in the series on Er [3] it was 590 nM; with human Era it was 630 nM; with Er [5], 26000 nM. Moreover, the maximal fold induction in series [1] came to 1.6; in series [2] (COS-7, monkey, 24 h, read-out: gmEra Emax) it was 19.4. For the same compound, the “gmAra REP50 (relative potency EC50, EC50-bisphenol A/EC50-bisphenol X)” value in series [1] (relative to BPA) was 1.0. Moreover, the “gmEra Emax” value in series [2] (fold activation in luciferase activity vs solvent control, 24 h exposure, * = statistically significant, a = plateau not reached, highest fold activation obtained, 1440 min) was 19 fold activation. In series [2], the “gmEra REP50 (relative potency EC50, EC50-bisphenol A/EC50-bisphenol X)” value came to 1.0. In addition, the “effect on testosterone-mediated gmAra activity, result in words” value in series [4] was “significantly decrease the testosterone-mediated Ara-activity”. In series [4], the IC50 worked out at 140 nM. Besides, in series [6], the “antiestrogenic effect on gmEra, result in words” value is listed as “did not antagonize gmEra; also recorded: no antiestrogenic effects”.

On to `CC(c1ccc(O)cc1)c1ccc(O)cc1` [BPE], for which the maximal fold induction in series [1] is 1.2. Further, the concentration for a half-maximal effect (EC50) in series [2] (24 h exposure) stood at 11700 nM. Also, the “gmEra REP50 (relative potency EC50, EC50-bisphenol A/EC50-bisphenol X)” value in series [2] stood at 0.2. Also, in series [7], the “Vtg synthesis in PCLS, result in words” value was “induced the highest Vtg-levels ex vivo”. In addition, in series [4], the “effect on testosterone-mediated gmAra activity, result in words” value is “significantly decrease the testosterone-mediated Ara-activity” and the half-inhibitory concentration (IC50) worked out at 460 nM. Further, the “antiestrogenic effect on gmEra, result in words” value in series [6] is “no antiestrogenic effects”.

The values are drawn from article PMC11325555, “Interaction of Bisphenol A and Its Analogs with Estrogen and Androgen Receptor from Atlantic Cod (Gadus morhua)” (Environmental Science & Technology, 2024).
